# US20070219203A1, “Arylalkylamino-substituted quinazoline analogues” (Neurogen Corporation, priority 2004, published 2007)
# Target: T1, human capsaicin receptor (Homo sapiens, UniProt Q8NER1)
# T1 construct: expressed in transfected cells
# Experiment: Calcium mobilization assay, antagonist activity (Example 6)
# Assay type: cell-based
# Settings: Table I; 50% decrease in fluorescence response of cells expressing human capsaicin receptor exposed to capsaicin
# Procedure: A cDNA encoding full length human capsaicin receptor (SEQ ID NO:1, 2 or 3 of U.S. Pat. No. 6,482,611) is subcloned in the plasmid pBK-CMV (Stratagene, La Jolla, Calif.) for recombinant expression in mammalian cells.
# Human embryonic kidney (HEK293) cells are transfected with the pBK-CMV expression construct encoding the full length human capsaicin receptor using standard methods. The transfected cells are selected for two weeks in media containing G418 (400 μg/ml) to obtain a pool of stably transfected cells. Independent clones are isolated from this pool by limiting dilution to obtain clonal stable cell lines for use in subsequent experiments.
# Cells transfected with expression plasmids (as described in Example 4) and thereby expressing human capsaicin receptor are seeded and grown to 70-90% confluency in FALCON black-walled, clear-bottomed 96-well plates (#3904, BECTON-DICKINSON, Franklin Lakes, N.J.). The culture medium is emptied from the 96 well plates and […] calcium sensitive dye (Molecular Probes, Eugene, Oreg.) is added to each well (dye solution: 1 mg […], 440 μL DMSO and 440 μl 20% pluronic acid in DMSO, diluted 1:250 in Krebs-Ringer HEPES (KRH) buffer (25 mM HEPES, 5 mM KCl, 0.96 mM NaH2PO4, 1 mM MgSO4, 2 mM CaCl2, 5 mM glucose, 1 mM probenecid, pH 7.4), 50 μl diluted solution per well). Plates are covered with aluminum foil and incubated at 37° C. for 1-2 hours in an environment containing 5% CO2. After the incubation, the dye is emptied from the plates, and the cells are washed once with KRH buffer, and resuspended in KRH buffer.
# To measure the ability of a test compound to agonize or antagonize a calcium mobilization response in cells expressing capsaicin receptors to capsaicin or other vanilloid agonist, the EC50 of the agonist capsaicin is first determined. An additional 20 μl of KRH buffer and 1 μl DMSO is added to each well of cells, prepared as described above. 100 μl capsaicin in KRH buffer is automatically transferred by the FLIPR instrument to each well. Capsaicin-induced calcium mobilization is monitored using either FLUOROSKAN ASCENT (Labsystems; Franklin, Mass.) or FLIPR (fluorometric imaging plate reader system; Molecular Devices, Sunnyvale, Calif.) instruments. Data obtained between 30 and 60 seconds after agonist application are used to generate an 8-point concentration response curve, with final capsaicin concentrations of 1 nM to 3 μM. KALEIDAGRAPH software (Synergy Software, Reading, Pa.) is used to fit the data to the equation: y=a*(1/(1+(b/x)^c)) to determine the 50% excitatory concentration (EC50) for the response. In this equation, y is the maximum fluorescence signal, x is the concentration of the agonist or antagonist (in this case, capsaicin), a is the Emax, b corresponds to the EC50 value and c is the Hill coefficient. Determination of Agonist Activity
# Test compounds are dissolved in DMSO, diluted in 20 μl KRH buffer so that the final concentration of test compounds in the assay well is between 1 μM and 5 μM, and added to cells prepared as described above. The 96 well plates containing prepared cells and test compounds are incubated in the dark, at room temperature for 0.5 to 6 hours. It is important that the incubation not continue beyond 6 hours. Just prior to determining the fluorescence response, 100 μl capsaicin in KRH buffer at twice the EC50 concentration determined as described above is automatically added by the FLIPR instrument to each well of the 96 well plate for a final sample volume of 200 μl and a final capsaicin concentration equal to the EC50. The final concentration of test compounds in the assay wells is between 1 μM and 5 μM. […] The concentration of antagonist required to provide a 50% decrease, relative to the response observed in the presence of capsaicin and without antagonist, is the IC50 for the antagonist, and is preferably below 1 micromolar, 100 nanomolar, 10 nanomolar or 1 nanomolar.
# T1 sequence (Q8NER1 whole entry): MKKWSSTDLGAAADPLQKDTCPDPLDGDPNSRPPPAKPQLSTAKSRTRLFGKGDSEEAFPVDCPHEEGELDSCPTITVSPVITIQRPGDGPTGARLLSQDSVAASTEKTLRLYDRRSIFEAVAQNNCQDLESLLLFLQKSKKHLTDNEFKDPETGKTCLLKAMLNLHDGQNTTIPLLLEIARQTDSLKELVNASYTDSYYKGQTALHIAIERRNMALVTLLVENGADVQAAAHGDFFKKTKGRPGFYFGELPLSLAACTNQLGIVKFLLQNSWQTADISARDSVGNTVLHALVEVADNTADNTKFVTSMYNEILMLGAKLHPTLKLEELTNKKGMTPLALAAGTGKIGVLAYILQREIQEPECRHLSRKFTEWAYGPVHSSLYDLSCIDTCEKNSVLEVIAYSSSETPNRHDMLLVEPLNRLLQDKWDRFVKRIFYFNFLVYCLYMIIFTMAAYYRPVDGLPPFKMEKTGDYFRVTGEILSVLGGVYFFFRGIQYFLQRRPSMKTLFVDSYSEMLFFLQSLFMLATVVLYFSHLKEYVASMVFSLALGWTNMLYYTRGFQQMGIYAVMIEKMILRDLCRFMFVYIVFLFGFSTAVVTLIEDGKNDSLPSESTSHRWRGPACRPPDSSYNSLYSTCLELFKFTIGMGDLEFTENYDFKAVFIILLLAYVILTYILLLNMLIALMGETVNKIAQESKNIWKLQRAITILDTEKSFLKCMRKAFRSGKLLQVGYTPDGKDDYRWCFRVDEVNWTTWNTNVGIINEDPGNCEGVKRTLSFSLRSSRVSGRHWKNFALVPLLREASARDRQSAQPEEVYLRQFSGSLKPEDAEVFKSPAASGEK
row,SMILES,IC50
1,"CC(C)COCc1nc(NCCc2ccccc2Cl)c2ccc(-c3ncccc3C(F)(F)F)nc2n1 [Compound 33, N-[2-(2-chlorophenyl)ethyl]-2-(isobutoxymethyl)-7-[3-(trifluoromethyl)pyridin-2-yl]pyrido[2,3-d]pyrimidin-4-amine]",≤ 1000 nM
2,"CC(C)COCc1nc(NCCc2cccc(Cl)c2)c2ccc(-c3ncccc3C(F)(F)F)nc2n1 [Compound 34, N-[2-(3-chlorophenyl)ethyl]-2-(isobutoxymethyl)-7-[3-(trifluoromethyl)pyridin-2-yl]pyrido[2,3-d]pyrimidin-4-amine]",≤ 1000 nM
3,"CC(C)COCc1nc(NCCc2ccc(Cl)cc2)c2ccc(-c3ncccc3C(F)(F)F)nc2n1 [Compound 35, N-[2-(4-chlorophenyl)ethyl]-2-(isobutoxymethyl)-7-[3-(trifluoromethyl)pyridin-2-yl]pyrido[2,3-d]pyrimidin-4-amine]",≤ 1000 nM
4,"CC(C)COCc1nc(NCCc2cccc(F)c2)c2ccc(-c3ncccc3C(F)(F)F)nc2n1 [Compound 36, N-[2-(3-fluorophenyl)ethyl]-2-(isobutoxymethyl)-7-[3-(trifluoromethyl)pyridin-2-yl]pyrido[2,3-d]pyrimidin-4-amine]",≤ 1000 nM
5,"CC(C)COCc1nc(NCCc2ccc(F)cc2)c2ccc(-c3ncccc3C(F)(F)F)nc2n1 [Compound 37, N-[2-(4-fluorophenyl)ethyl]-2-(isobutoxymethyl)-7-[3-(trifluoromethyl)pyridin-2-yl]pyrido[2,3-d]pyrimidin-4-amine]",≤ 1000 nM
6,"CC(C)COCc1nc(NCCc2ccccc2C(F)(F)F)c2ccc(-c3ncccc3C(F)(F)F)nc2n1 [Compound 38, 2-(isobutoxymethyl)-N-{2-[2-(trifluoromethyl)phenyl]ethyl}-7-[3-(trifluoromethyl)pyridin-2-yl]pyrido[2,3-d]pyrimidin-4-amine]",≤ 1000 nM
7,"CC(C)COCc1nc(NCCc2cccc(C(F)(F)F)c2)c2ccc(-c3ncccc3C(F)(F)F)nc2n1 [Compound 39, 2-(isobutoxymethyl)-N-{2-[3-(trifluoromethyl)phenyl]ethYl}-7-[3-(trifluoromethyl)pyridin-2-yl]pyrido[2,3-d]pyrimidin-4-amine]",≤ 1000 nM
8,"CC(C)COCc1nc(NCCc2ccc(C(F)(F)F)cc2)c2ccc(-c3ncccc3C(F)(F)F)nc2n1 [Compound 40, 2-(isobutoxymethyl)-N-{2-[4-(trifluoromethyl)phenyl]ethyl}-7-[3-(trifluoromethyl)pyridin-2-yl]pyrido[2,3-d]pyrimidin-4-amine]",≤ 1000 nM
9,"COc1ccccc1CCNc1nc(COCC(C)C)nc2nc(-c3ncccc3C(F)(F)F)ccc12 [Compound 41, 2-(isobutoxymethyl)-N-[2-(2-methoxyphenyl)ethyl]-7-[3-(trifluoromethyl)pyridin-2-yl]pyrido[2,3-d]pyrimidin-4-amine]",≤ 1000 nM
10,"COc1cccc(CCNc2nc(COCC(C)C)nc3nc(-c4ncccc4C(F)(F)F)ccc23)c1 [Compound 42, 2-(isobutoxymethyl)-N-[2-(3-methoxyphenyl)ethyl]-7-[3-(trifluoromethyl)pyridin-2-yl]pyrido[2,3-d]pyrimidin-4-amine]",≤ 1000 nM
11,"COc1ccc(CCNc2nc(COCC(C)C)nc3nc(-c4ncccc4C(F)(F)F)ccc23)cc1 [Compound 43, 2-(isobutoxymethyl)-N-[2-(4-methoxyphenyl)ethyl]-7-[3-(trifluoromethyl)pyridin-2-yl]pyrido[2,3-d]pyrimidin-4-amine]",≤ 1000 nM
12,"CC(C)COCc1nc(NCCc2ccccc2F)c2ccc(-c3ncccc3Cl)nc2n1 [Compound 44, 7-(3-chloropyridin-2-yl)-N-[2-(2-fluorophenyl)ethyl]-2-(isobutoxymethyl)pyrido[2,3-d]pyrimidin-4-amine]",≤ 1000 nM
13,CC(C)COCc1nc(NCCc2cccc(F)c2)c2ccc(-c3ncccc3Cl)nc2n1 [Compound 45],≤ 1000 nM
14,"CC(C)COCc1nc(NCCc2ccc(F)cc2)c2ccc(-c3ncccc3Cl)nc2n1 [Compound 46, 7-(3-chloropyridin-2-yl)-N-[2-(4-fluorophenyl)ethyl]-2-(isobutoxymethyl)pyrido[2,3-d]pyrimidin-4-amine]",≤ 1000 nM
15,"CC(C)COCc1nc(NCCc2ccccc2Cl)c2ccc(-c3ncccc3Cl)nc2n1 [Compound 47, N-[2-(2-chlorophenyl)ethyl]-7-(3-chloropyridin-2-yl)-2-(isobutoxymethyl)pyrido[2,3-d]pyrimidin-4-amine]",≤ 1000 nM
16,"CC(C)COCc1nc(NCCc2cccc(Cl)c2)c2ccc(-c3ncccc3Cl)nc2n1 [Compound 48, N-[2-(3-chlorophenyl)ethyl]-7-(3-chloropyridin-2-yl)-2-(isobutoxymethyl)pyrido[2,3-d]pyrimidin-4-amine]",≤ 1000 nM
17,"CC(C)COCc1nc(NCCc2ccc(Cl)cc2)c2ccc(-c3ncccc3Cl)nc2n1 [Compound 49, N-[2-(4-chlorophenyl)ethyl]-7-(3-chloropyridin-2-yl)-2-(isobutoxymethyl)pyrido[2,3-d]pyrimidin-4-amine]",≤ 1000 nM
18,"CC(C)COCc1nc(NCCc2ccccc2C(F)(F)F)c2ccc(-c3ncccc3Cl)nc2n1 [Compound 50, 7-(3-chloropyridin-2-yl)-2-(isobutoxymethyl)-N-{2-[2-(trifluoromethyl)phenyl]ethyl}pyrido[2,3-d]pyrimidin-4-amine]",≤ 1000 nM
19,"CC(C)COCc1nc(NCCc2cccc(C(F)(F)F)c2)c2ccc(-c3ncccc3Cl)nc2n1 [Compound 51, 7-(3-chloropyridin-2-yl)-2-(isobutoxymethyl)-N-{2-[3-(trifluoromethyl)phenyl]ethyl}pyrido[2,3-d]pyrimidin-4-amine]",≤ 1000 nM
20,"CCOCc1nc(NCCc2ccccc2F)c2ccc(-c3ncccc3Cl)nc2n1 [Compound 52, 7-(3-chloropyridin-2-yl)-n-(ethoxymethyl)-N-[2-(2-fluorophenyl)ethyl]pyrido[2,3-d]pyrimidin-4-amine]",≤ 1000 nM
21,"CCOCc1nc(NCCc2ccc(F)cc2)c2ccc(-c3ncccc3Cl)nc2n1 [Compound 53, 7-(3-chloropyridin-2-yl)-2-(ethoxymethyl)-N-[2-(4-fluorophenyl)ethyl]pyrido[2,3-d]pyrimidin-4-amine]",≤ 1000 nM
22,"CCOCc1nc(NCCc2ccccc2Cl)c2ccc(-c3ncccc3Cl)nc2n1 [Compound 54, N-[2-(2-chlorophenyl)ethyl]-7-(3-chloropyridin-2-yl)-2-(ethoxymethyl)pyrido[2,3-d]pyrimidin-4-amine]",≤ 1000 nM
23,"CCOCc1nc(NCCc2cccc(Cl)c2)c2ccc(-c3ncccc3Cl)nc2n1 [Compound 55, N-[2-(3-chlorophenyl)ethyl]-7-(3-chloropyridin-2-yl)-2-(ethoxymethyl)pyrido[2,3-d]pyrimidin-4-amine]",≤ 1000 nM
24,"CCOCc1nc(NCCc2ccccc2C(F)(F)F)c2ccc(-c3ncccc3Cl)nc2n1 [Compound 56, 7-(3-chloropyridin-2-yl)-2-(ethoxymethyl)-N-{2-[2-(trifluoromethyl)phenyl]ethyl}pyrido [2,3-d]pyrimidin-4-amine]",≤ 1000 nM
25,"CCOCc1nc(NCCc2cccc(OC)c2)c2ccc(-c3ncccc3Cl)nc2n1 [Compound 57, 7-(3-chloropyridin-2-yl)-2-(ethoxymethyl)-N-[2-(3-methoxyphenyl)ethyl]pyrido[2,3-d]pyrimidin-4-amine]",≤ 1000 nM
26,"Cc1ccccc1CCNc1nc(COCC(C)C)nc2nc(-c3ncccc3Cl)ccc12 [Compound 58, 7-(3-chloropyridin-2-yl)-2-(isobutoxymethyl)-N-[2-(2-methylphenyl)ethyl]pyrido[2,3-d]pyrimidin-4-amine]",≤ 1000 nM
